The text below walks through data of PMC9740559, “Molecular and Pharmacological Characterization of β-Adrenergic-like Octopamine Receptors in the Endoparasitoid Cotesia chilonis (Hymenoptera: Braconidae)” (International Journal of Molecular Sciences, 2022).

Experiment [1] deals with T1, CcOctβ2R.
T1 construct: gene Octβ2R; full-length ORF, 435 residues; pcDNA3.0 vector with hemagglutinin A tag
The experiment is described as follows: cAMP production in stable CHO-K1 cells (cAMP immunoassay). Particulars: agonist; 100 μM IBMX; 25 °C. In kind it is cell-based, Cotesia chilonis. The source says:
cAMP production in stable CHO-K1 cells (cAMP immunoassay) on CcOctβ2R

The subject of experiment [2] is T2, CcOctβ1R.
T2 construct: gene Octβ1R; full-length ORF, 417 residues; pcDNA3.0 vector with hemagglutinin A tag
Described as above. Format: cell-based, Cotesia chilonis. Particulars: agonist; 100 μM IBMX; 25 °C. The source says:
cAMP production in stable CHO-K1 cells (cAMP immunoassay) on CcOctβ1R

Experiment [3] relates to T3, CcOctβ3R.
T3 construct: gene Octβ3R; full-length ORF, 358 residues; pcDNA3.0 vector with hemagglutinin A tag
The description is as above. Format: cell-based, Cotesia chilonis. Particulars: agonist; 100 μM IBMX; 25 °C.
Source text: cAMP production in stable CHO-K1 cells (cAMP immunoassay) on CcOctβ3R

Experiment [4] deals with T4, CcOctβ2R.
T4 construct: gene Octβ2R
Particulars: read-out: CcOctβ2R / IC50; antagonist; non-saturating OA (30 nM); 100 μM IBMX; 25 °C. The source says: inhibition of OA-induced cAMP in stable CHO-K1 cells (cAMP immunoassay) on CcOctβ2R

For experiment [5], the system named is T5, CcOctβ3R.
T5 construct: gene Octβ3R
Particulars: read-out: CcOctβ3R / IC50; antagonist; non-saturating OA (300 nM); 100 μM IBMX; 25 °C. The source says:
inhibition of OA-induced cAMP in stable CHO-K1 cells (cAMP immunoassay) on CcOctβ3R

Experiment [6] has as its system T6, CcOctβ1R.
T6 construct: gene Octβ1R
As to conditions: read-out: CcOctβ1R / IC50; antagonist; non-saturating OA (100 nM); 100 μM IBMX; 25 °C. The source says: inhibition of OA-induced cAMP in stable CHO-K1 cells (cAMP immunoassay) on CcOctβ1R

With `Cc1ccc(/N=C/N(C)/C=N/c2ccc(C)cc2C)c(C)c1` [Amitraz], the EC50 (in general, the concentration at which the effect is half-maximal) was 3.27 nM in the experiment on CcOctβ2R [1] and 16.5 nM in the experiment with CcOctβ1R [2].
For the compound `CN=CNc1ccc(C)cc1C` [DPMF, N^2-(2,4-dimethylphenyl)-N^1-methyformamidine], the EC50 was found to be 4.35 nM in the experiment on CcOctβ3R [3], 2.37 nM in the experiment on CcOctβ2R [1] and 9.25 nM in the experiment with CcOctβ1R [2].
Regarding `NC1=NCC2c3ccccc3Cc3ccccc3N12` (centres unmarked) [Epinastine], the IC50 in the experiment on CcOctβ2R [4] stood at 14.4 nM; in the experiment on CcOctβ3R [5], 7.34 nM; with CcOctβ1R [6], 37.6 nM.
As to `c1ccc2c(CC3=NCCN3)cccc2c1` [Naphazoline], the EC50 was 5.06 nM in the experiment with CcOctβ3R [3], 0.0157 nM in the experiment with CcOctβ2R [1] and 0.231 nM in the experiment with CcOctβ1R [2].
With `NC[C@H](O)c1ccc(O)cc1` [OA], the EC50 with CcOctβ3R [3] was 33.6 nM; in the experiment with CcOctβ2R [1], 6.69 nM; in the experiment on CcOctβ1R [2], 39 nM.
